Test results from patent publication US5252718A, “Fibroblast growth factor antagonists” (The Salk Institute for Biological Studies, priority 1992, dated 1993).
Square brackets hold non-standard residues; d marks the D form. Ends that are not written are not given here. Peptide text beside a SMILES is read from it. Sar = CNCC(=O)O

Columns and labels:
[1] = system: BAAE cells; assay type: cell-based, bovine; details: for reducing cell population, bFGF-stimulated endothelial cell growth / reducing cell population, basal endothelial cell growth: manner of Example II, concentration not given
Protocol: To determine the effectiveness of the bFGF fragment peptide to inhibit the growth of endothelial cells, the peptide is tested under conditions to measure its ability to modulate both basal cell growth and bFGF-simulated cell proliferation. A bioassay was employed of the type set forth in detail in Gospodarowicz et al., J. Cell Biol., 122, 323-333 (1985), using BAAE cells.
For each test, an initial cell density of between about 0.3-0.5×10^4 cells per well was established in 24-miniwell plates. After 6-8 hours, the cells in each well were treated with a challenge dose of bFGF in the absence, or presence to a varying concentration, of a synthetic FGF antagonist. The precise treatment was repeated 48 hours later. On the fifth day, the cells were digested with trypsin, and the total number of cells in each well was determined using a Coulter particle counter.

[2] = Binding to [^3 H]-heparin; details: result in words
[3] = system: FGF receptors of BHK cells; details: result in words

Compound: CC[C@H](C)[C@H](NC(=O)[C@H](CO)NC(=O)[C@@H](NC(=O)[C@@H](NC(=O)CNC(=O)[C@H](CCCNC(=N)N)NC(=O)[C@H](CCC(=O)O)NC(=O)[C@H](CCC(=O)O)NC(=O)[C@H](C)NC(=O)[C@H](CCC(N)=O)NC(=O)[C@H](CC(C)C)NC(=O)[C@H](CCC(N)=O)NC(=O)[C@H](CC(C)C)NC(=O)[C@H](CCCCN)NC(=O)[C@@H](NC(=O)[C@H](Cc1c[nH]cn1)NC(=O)[C@@H]1CCCN1C(=O)[C@H](CC(=O)O)NC(=O)[C@H](CO)NC(=O)[C@H](CCCCN)NC(=O)[C@H](CCC(=O)O)NC(=O)[C@H](CCCNC(=N)N)NC(=O)[C@@H](NC(=O)CN(C)C(=O)[C@H](CC(=O)O)NC(=O)[C@@H](NC(=O)[C@H](CCCNC(=N)N)NC(=O)CNC(=O)[C@H](CC(=O)O)NC(=O)[C@@H]1CCCN1)C(C)C)C(C)C)[C@@H](C)CC)C(C)C)C(C)C)C(=O)N[C@@H](CCCCN)C(=O)NCC(=O)N[C@H](C(N)=O)C(C)C [[Sar42]-bFGF(36-68)-NH2] (H-PDGRVD[Sar]VREKSDPHIKLQLQAEERGVVSIKGV-NH2)
- antagonist activity to both basal and bFGF-stimulated endothelial cell growth ([1]; result in words): full antagonist activity

Compound: N=C(N)NCCC[C@H](NC(=O)CNC(=O)[C@H](CC(=O)O)NC(=O)[C@@H]1CCCN1)C(N)=O [bFGF(36-39)-NH2, H-Pro-Asp-Gly-Arg-NH2] (H-PDGR-NH2)
- ID50 [1]: 30 to 50 µM
- reducing cell population, bFGF-stimulated endothelial cell growth [1]: about 54%
- reducing cell population, basal endothelial cell growth [1]: about 37%
- antagonist activity to both basal and bFGF-stimulated endothelial cell growth ([1]; result in words): full antagonist activity

Compound: H-Cys-Lys-Asn-Gly-Gly-Phe-Phe-T-Arg-Ile-His-Pro-Asp-NH2 [bFGF(25-37)-NH2]
- antagonist activity to basal endothelial cell growth ([1]; basal growth only, result in words): some antagonist activity
- binding of the peptide to heparin [2]: fairly strong binding affinity
- binding affinity for BHK cells [3]: fair affinity

Compound: H-FFFERLESNNYNTYRSRKYSSWYVALKR-NH2 [bFGF(93-120)-NH2, H-Phe-Phe-Phe-Glu-Arg-Leu-Glu-Ser-Asn-Asn-Tyr-Asn-Thr-Tyr-Arg-Ser-Arg-Lys- Tyr-Ser-Ser-Trp-Tyr-Val-Ala Leu-Lys-Arg-NH2]
- antagonist activity to both basal and bFGF-stimulated endothelial cell growth ([1]; result in words): full antagonist activity
- binding of the peptide to heparin [2]: binds to heparin
- inhibition of bFGF binding to BHK cells (receptor) [3]: inhibits the binding

Compound: H-FFLRIHPDGRVDGVREKSDP-NH2 [bFGF(30-49)-NH2, H-Phe-Phe-Leu-Arg-Ile-His-Pro-Asp-Gly-Arg-Val-Asp-Gly-Val-Arg-Glu-Lys-Ser- Asp-Pro-NH2]
- antagonist activity to both basal and bFGF-stimulated endothelial cell growth ([1]; result in words): full antagonist activity

Compound: H-FFLRIHPDGRVDGVREKSDPY-NH2 [[Tyr^50]-bFGF(30-50)-NHz, H-Phe-Phe-Leu-Arg-Ile-His-Pro-Asp-Gly-Arg-Val-Asp-Gly-Val-Arg-Glu-Lys-Ser- Asp-Pro-Tyr-NH2]
- reducing cell population, bFGF-stimulated endothelial cell growth [1]: about 6%
- reducing cell population, basal endothelial cell growth [1]: about 19%
- antagonist activity to both basal and bFGF-stimulated endothelial cell growth ([1]; result in words): full antagonist activity

Compound: H-HPDGRVDAVREKTDPH-NH2 [[Ala^42, Thr^47]-bFGF(35-50)-NH2, H-His-Pro-Asp-Gly-Arg-Val-Asp-Ala-Val-Arg-Glu-Lys-Thr-Asp-Pro-His-NH2]
- antagonist activity to both basal and bFGF-stimulated endothelial cell growth ([1]; result in words): full antagonist activity

Compound: H-HPDGRVDGVREKSDPH-NH2 [bFGF(35-50)-NH2, H-His-Pro-Asp-Gly-Arg-Val-Asp-Gly-Val-Arg-Glu-Lys-Ser-Asp-Pro-His-NH2]
- antagonist activity to both basal and bFGF-stimulated endothelial cell growth ([1]; result in words): full antagonist activity

Compound: H-LRIHPDGR-NH2 [bFGF(32-39)-NHz, H-Leu-Arg-Ile-His-Pro-Asp-Gly-Arg-NH2]
- reducing cell population, bFGF-stimulated endothelial cell growth [1]: about 11%
- reducing cell population, basal endothelial cell growth [1]: about 37%
- antagonist activity to both basal and bFGF-stimulated endothelial cell growth ([1]; result in words): full antagonist activity

Compound: H-LRIHPDGRVDGVREKSDPHIKL-NH2 [bFGF(32-53)-NHz, H-Leu-Arg-Ile-His-Pro-Asp-Gly-Arg-Val-Asp-Gly-Val-Arg-Glu-Lys-Ser-Asp-Pro- His-Ile-Lys-Leu-NH2]
- antagonist activity to both basal and bFGF-stimulated endothelial cell growth ([1]; result in words): weak antagonist activity

Compound: H-PDGRVDAVREKSDPHIKLQLQAEERGVVSIKGV-NH2 [[Ala^42]-bFGF(36-68)-NH2, H-Pro-Asp-Gly-Arg-Val-Asp-Ala-Val-Arg-Glu-Lys-Ser-Asp-Pro-His-Ile-Lys-Leu- Gln-Leu-Gln-Ala-Glu Glu-Arg-Gly-Val-Val-Ser-Ile-Lys-Gly-Val-NH2]
- antagonist activity to both basal and bFGF-stimulated endothelial cell growth ([1]; result in words): full antagonist activity

Compound: H-YCKNGGFFLRIHPDGRVDGVREKSDPHIKLQLQAEERGVVSIKGV-NH2 [bFGF(24-68)-NH2]
- ID50 [1]: about 5 micromolar
- cell population reduced, bFGF-stimulated cell growth ([1]; bFGF-stimulated cell growth, peptide about 100 μg/ml): about 92%
- cell population reduced, basal cell growth ([1]; basal cell growth, peptide about 100 μg/ml): about 84%
- antagonist activity to both basal and bFGF-stimulated endothelial cell growth ([1]; result in words): full antagonist activity
- binding of the peptide to heparin [2]: strong affinity

Compound: H-YFLRIHPDGRVDGVREKSDPY-OH [[Tyr30,50]-bFGF(30-50)-OH, H-Tyr-Phe-Leu-Arg-Ile-His-Pro-Asp-Gly-Arg-Val-Asp-Gly-Val-Arg-Glu-Lys-Ser- Asp-Pro-Tyr-OH]
- antagonist activity to both basal and bFGF-stimulated endothelial cell growth ([1]; result in words): full antagonist activity

Compound: H-YNTYRSRKYSAWYVALKRTGQYKLGPKTGPGQKAILFLPMSAKS-NH2 [[Ala^113]-bFGF(103-146)-NH2]
- inhibition of bFGF binding to BHK cells (receptor) [3]: very strongly inhibits

Compound: H-YNTYRSRKYSSWYVALKRTGQYKLGPKTGPGQKAILFLPMSAKS-NH2 [bFGF(103-146)-NH2, H-Tyr-Asn-Thr-Tyr-Arg-Ser-Arg-Lys-Tyr-Ser-Ser-Trp-Tyr-Val-Ala-Leu-Lys-Arg- Thr-Gly-Gln-Tyr-Lys-Leu-Gly -Pro-Lys-Thr-Gly-Pro-Gly-Gln-Lys-Ala-Ile-Leu-Phe-Leu-Pro-Met-Ser-Ala-Lys-Ser-NH2]
- inhibition of FGF binding to heparin [2]: very strongly inhibits
- inhibition of bFGF binding to BHK cells (receptor) [3]: very strongly inhibits

Compound: H-YRSRKYSSWYVAL-NH2 [bFGF(106-118)-NH2, H-Tyr-Arg-Ser-Arg-Lys-Tyr-Ser-Ser-Trp-Tyr-Val-Ala-Leu-NH2]
- antagonist activity in mitogenic assays ([1]; result in words): partial antagonist activity
- inhibition of bFGF binding to BHK cells (receptor) [3]: inhibits binding

Compound: YCKNGGFFLRIHPDGRVDGVREKADPHIKLQLQAEERGVV-NH2 [[Ala^47]-bFGF(24-63)-NH2]
- antagonist activity to both basal and bFGF-stimulated endothelial cell growth ([1]; result in words): full antagonist activity

Compound: YCKNGGFFLRIHPDGRVDGVREKSDPHIKLQLQAEERGVV-NH2 [bFGF(24-63)-NH2, H-Tyr-Cys-Lys-Asn-Gly-Gly-Phe-Phe-Leu-Arg-Ile-His-Pro-Asp-Gly-Arg-Val-Asp- Gly-Val-Arg-Glu-LysSer-Asp-Pro-His-Ile-Lys-Leu-Gln-T-Gln-Ala -Glu-Glu-Arg-Gly-Val-Val-NH2]
- antagonist activity to both basal and bFGF-stimulated endothelial cell growth ([1]; result in words): full antagonist activity

Compound: YCKNGGFFLRIHPDGRVDGVREKSDPHIKLQLQAEERGVVSIKGV [bFGF(24-68)-OH]
- ID50 [1]: about 5 micromolar
